Source: US20240245711A1, “A 19-NOR C3,3-DISUBSTITUTED C21-N-PYRAZOLYL STEROID FOR THE TREATMENT OF MAJOR DEPRESSIVE DISORDER” (Sage Therapeutics, Inc., priority 2021, published 2024)

Test system: adult subjects with Major Depressive Disorder
Assay: Phase 3 open-label 1-year study: HAM-D total score, response and remission
Assay type: in vivo, human
Excerpt: Secondary Objective: To assess the need for re-treatment with Compound (1) following initial treatment in adults with MDD currently experiencing an MDE over a 1-year period, and to assess the response of initial treatment and re-treatment(s) with Compound (1) following an initial 2-week treatment period in adults with MDD currently experiencing an MDE over a 1-year period.
Secondary Endpoints: The need for re-treatment with Compound (1) as assessed by: time to first re-treatment (Kaplan-Meier curves), number of subjects achieving the requirements for re-treatment, number of re-treatment cycles for each subject, the response of initial treatment and/or re-treatment as assessed by: change from baseline in the 17-item Hamilton Rating Scale for Depression (HAM-D) total score at the end of each 14-day treatment (initial and/or re-treatment) period, HAM-D response at the end of each 14-day treatment (initial and/or re-treatment) period, defined as a ≥50% reduction in HAM-D score from baseline, HAM-D remission at the end of each 14-day treatment (initial and/or re-treatment) period, defined as HAM-D total score≤7, Clinical Global Impression-Improvement (CGI-I) response, defined as “much improved” or “very much improved”, at the end of each 14-day treatment (initial and/or re-treatment) period, change from baseline in Clinical Global Impression-Severity (CGI-S) score at the end of each 14-day treatment (initial and/or re-treatment) period.
Study Population: Subjects were 18-75 years old, diagnosed with major depressive disorder (MDD) with a MADRS total score of ≥28 and a HAM-D total score of ≥20 at Screening and Day 1 (prior to dosing).
Treatment Groups: The 30 mg and 50 mg dose groups were separated by time of enrollment. The study is comprised of two cohorts: one with Compound (1) 30 mg as a starting dose (30 mg Cohort: n=725), an initial cohort with Compound (1) 50 mg as a starting dose (50 mg Cohort: n=199). A patient receiving Compound (1) 30 mg could be dose reduced to 20 mg and patients receiving Compound (1) 50 mg could be dose reduced to 40 mg (based on tolerability). In all cohorts, Compound (1) is self-administered by patients as an oral therapy once nightly with food for 14 days.
Eligible subjects were given Compound (1)—to be taken at home in the evening with meal.
The cohorts pertaining to the different doses that the subjects received were defined as following: • 50 mg cohort: This cohort includes subjects who have initiated treatment with 50 mg and received re-treatment with 50 mg only. • 30 mg cohort: This cohort includes subjects who have initiated treatment with 30 mg regardless of the dose they have received in re-treatments. • Low dose cohort: This cohort includes subjects who have initiated treatment with 30 mg and received re-treatment with 30 mg only. • Dose switch cohort: This cohort includes subjects who have received initial treatment with 30 mg and at least one subsequent re-treatment with 50 mg. • Study Period X: starts on the date of the first dose of Compound (1) in cycle X and goes up to one day prior to the first dose of the next cycle. In some embodiments, X is any number from 1 to 5. • Treatment Period X: starts on the date of the first dose of Compound (1) in cycle X and goes up to one day after the last dose in cycle X. In some embodiments, X is any number from 1 to 5. • Treatment Cycle X: starts on the date of the first dose of Compound (1) in cycle X and goes up to 14 days after the last dose in cycle X. The treatment cycles may be denoted as C1-C5. • Observation period X: starts the day after Treatment Cycle X ends and goes up to one day prior to the start of next treatment cycle. In some embodiments, X is any number from 1 to 5.
Analysis Sets: The safety set was defined as all subjects who were administered study drug. The period-specific safety set includes subjects in the safety set who were administered study drug in the corresponding treatment cycle. […]

[1] = Day 15 of first treatment cycle, overall study population
[2] = Dose Switch Cohort (FAS), first dose in cycle 30 mg, Cycle 2, Day 15
[3] = Dose Switch Cohort (FAS), first dose in cycle 30 mg, Cycle 3, Day 15
[4] = Dose Switch Cohort (FAS), first dose in cycle 30 mg, Cycle 4, Day 15
[5] = Low Dose Cohort (FAS), of Non-responders at D15 in C3 (N = 33)
[6] = Low Dose Cohort (FAS), of Non-responders at D15 in C4 (N = 18)
[7] = Low Dose Cohort (FAS), of Non-responders at D15 in C5 (N = 7)
[8] = Low Dose Cohort (FAS), subjects dosed in Cycle 2 (199), Cycle 1, Day 15
[9] = Low Dose Cohort (FAS), subjects dosed in Cycle 2 (199), Cycle 1, Day 28
[10] = Low Dose Cohort (FAS), subjects dosed in Cycle 2 (199), Cycle 2, Day 15
[11] = Low Dose Cohort (FAS), subjects dosed in Cycle 2 (199), Cycle 2, Day 28
[12] = Low Dose Cohort (FAS), subjects dosed in Cycle 3 (83), Cycle 1, Day 15
[13] = Low Dose Cohort (FAS), subjects dosed in Cycle 3 (83), Cycle 2, Day 15
[14] = Low Dose Cohort (FAS), subjects dosed in Cycle 3 (83), Cycle 2, Day 28
[15] = Low Dose Cohort (FAS), subjects dosed in Cycle 3 (83), Cycle 3, Day 15
[16] = Low Dose Cohort (FAS), subjects dosed in Cycle 3 (83), Cycle 3, Day 28

In the case of `C[C@@]1(O)CC[C@H]2[C@H](CC[C@@H]3[C@@H]2CC[C@]2(C)[C@@H](C(=O)Cn4cc(C#N)cn4)CC[C@@H]32)C1` [Compound (1), 1-(2-((3R,5R,8R,9R,10S,13S,14S,17S)-3-hydroxy-3,13-dimethylhexadecahydro-1H-cyclopenta[a]phenanthren-17-yl)-2-oxoethyl)-1H-pyrazole-4-carbonitrile], the “Withdrawn in Treatment Cycle 1: Exit for non-response, n (%)” value (50 mg Cohort (n = 199)) is reported as 31 (15.6%), the “Subjects achieving remission (HAM-D less than or equal to 7)” value (50 mg Cohort, Day 15 Treatment Cycle 1, Example 4, 80 subjects of 199) is reported as 40.2% and the “Subjects achieving response (at least 50% reduction in HAM-D from baseline)” value (50 mg Cohort, Day 15 Treatment Cycle 1, Example 4, about 149 subjects of 199) is reported as 74.9%. For the same molecule, the HAMD-17 remission rate [1] was 40.8%, the HAMD-17 response rate [1] was 75.0% and the “Mean (SD) CFB in HAMD-17” value (Day 15 of first treatment cycle, overall study population (30 mg and 50 mg Cohorts)) was −15.4 (6.9). The “Responders at D15 in C1 who did not discontinue in C1 (FAS), % of subjects dosed in C1” value (Dose Switch Cohort (80 dosed)) was 80 (100%), the “HAM-D Total Score, Mean Change from Period-Specific Baseline” value (“HAM-D Total Score, Mean Change” below) [2] was −15.5 and the “HAM-D Total Score, Mean Percent Change from Period-Specific Baseline” value (“HAM-D Total Score, Mean Percent Change” for short) [2] was −59.1. For the same molecule, the “HAM-D Total Score, Mean Change” value [3] was −15.8, the “HAM-D Total Score, Mean Percent Change” value [3] was −60.0 and the “HAM-D Total Score, Mean Change” value [4] was −14.8. For the same molecule, the “HAM-D Total Score, Mean Percent Change” value [4] was −60.0, the “Responders at D15 in C1 who did not discontinue in C1 (FAS), % of subjects dosed in C1” value (Low Dose Cohort (645 dosed)) was 409 (63.4%) and the “HAM-D Non-responder rate at D15 (of subjects dosed in cycle)” value (“HAM-D Non-responder rate at D15” below) (Low Dose Cohort (FAS), C2 (N = 70 of 199)) was “(N = 70, 35.2%)”. For the same molecule, the “HAM-D Non-responder rate at D15” value (Low Dose Cohort (FAS), C3 (N = 33 of 83)) was “(N = 33, 39.8%)”, the “HAM-D Non-responder rate at D15” value (Low Dose Cohort (FAS), C4 (N = 18 of 43)) was “(N = 18, 41.9%)” and the “HAM-D Non-responder rate at D15” value (Low Dose Cohort (FAS), C5 (N = 7 of 20)) was “(N = 7, 35%)”. For the same molecule, the “Status in C2: Non-responder” value [5] was “(57.6%)”, the “Status in C2: Responder” value [5] was “(42.4%)” and the “Status in C2: Non-responder” value [6] was “(55.6%)”. For the same molecule, the “Status in C2: Responder” value [6] was “(44.4%)”, the “Status in C3: Non-responder” value [6] was 9 (50.0%) and the “Status in C3: Responder” value [6] was “(50.0%)”. The “Status in C2: Non-responder” value [7] was “(85.7%)”, the “Status in C2: Responder” value [7] was “(14.3%)” and the “Status in C3: Non-responder” value [7] was 3 (42.9%). For the same molecule, the “Status in C3: Responder” value [7] was “(57.1%)”, the “Status in C4: Non-responder” value [7] was 5 (71.4%) and the “Status in C4: Responder” value [7] was 1 (14.4%). The “HAM-D Total Score, Mean Change” value [8] was −17.4, the “HAM-D Total Score, Mean Percent Change” value [8] was −70.0 and the “HAM-D Total Score, Mean Change” value [9] was −13.8. The “HAM-D Total Score, Mean Percent Change” value [9] was −55.2, the “HAM-D Total Score, Mean Change” value [10] was −12.3 and the “HAM-D Total Score, Mean Percent Change” value [10] was −52.6. For the same molecule, the “HAM-D Total Score, Mean Change” value [11] was −11.5, the “HAM-D Total Score, Mean Percent Change” value [11] was −49.1 and the “HAM-D Total Score, Mean Change” value [12] was −17.2. For the same molecule, the “HAM-D Total Score, Mean Percent Change” value [12] was −68.8, the “HAM-D Total Score, Mean Change” value (Low Dose Cohort (FAS), subjects dosed in Cycle 3 (83), Cycle 1, Day 28) was 83, −12.7, — and the “HAM-D Total Score, Mean Change” value [13] was −12.7. The “HAM-D Total Score, Mean Percent Change” value [13] was −52.9, the “HAM-D Total Score, Mean Change” value [14] was −11.2 and the “HAM-D Total Score, Mean Percent Change” value [14] was −46.5. For the same molecule, the “HAM-D Total Score, Mean Change” value [15] was −12.5, the “HAM-D Total Score, Mean Percent Change” value [15] was −52.4 and the “HAM-D Total Score, Mean Change” value [16] was −11.9. The “HAM-D Total Score, Mean Percent Change” value [16] was −49.8 and the “HAM-D Total Score, Mean Change” value (Low Dose Cohort (FAS), subjects dosed in Cycle 4 (43), Cycle 1, Day 15) was −17.0.
